Laboratory results reported in patent US8580769B2, “Treatment of obesity, metabolic syndrome, and diabetes with protein kinase C inhibitors” (The United States of America as represented by the …, priority 2011, dated 2013).

Experiments:
PKC-ζ = target: T1, PKC-ζ (Homo sapiens, UniProt Q05513); assay: PKC-ζ inhibition; type: biochemical
T1 construct: purchased Biovision, Mountain View, Calif
T1 sequence (Q05513 1-592): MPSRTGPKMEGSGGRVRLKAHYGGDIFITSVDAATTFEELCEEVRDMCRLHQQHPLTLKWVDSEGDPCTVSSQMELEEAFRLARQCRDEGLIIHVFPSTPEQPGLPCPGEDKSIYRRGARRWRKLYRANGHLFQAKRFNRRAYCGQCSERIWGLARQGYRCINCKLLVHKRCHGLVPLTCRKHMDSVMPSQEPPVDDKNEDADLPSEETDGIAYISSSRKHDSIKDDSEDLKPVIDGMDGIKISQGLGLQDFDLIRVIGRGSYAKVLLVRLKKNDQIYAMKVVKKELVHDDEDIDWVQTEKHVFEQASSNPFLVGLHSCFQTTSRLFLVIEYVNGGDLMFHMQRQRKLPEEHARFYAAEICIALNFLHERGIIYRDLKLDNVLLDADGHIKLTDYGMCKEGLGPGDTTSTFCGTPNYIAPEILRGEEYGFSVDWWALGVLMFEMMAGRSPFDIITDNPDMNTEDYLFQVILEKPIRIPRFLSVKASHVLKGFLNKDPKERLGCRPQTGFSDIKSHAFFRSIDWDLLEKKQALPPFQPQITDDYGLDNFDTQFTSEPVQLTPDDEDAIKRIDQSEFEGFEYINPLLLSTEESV
Experimental: For assays of recombinant PKC-ι and PKC-ζ (10 ng/assay; Biovision, Mountain View, Calif.), […] phosphatidylinositol-3,4,5-(PO4)3 (PIP3; Matreya, Pleasant Gap, Pa.) ±1 ng phosphoinositide-dependent kinase-1 (PDK1; Upstate Cell Signaling) was added to maximally activate and thus better define aPKC activity.

FoxO1 = assay: ser-256 phosphorylation of hepatic FoxO1 in wild type mice after a single ICAPP injection; type: in vivo, mouse; conditions: 1.5 mg/kg ICAPP s.c., basally and in response to insulin
Experimental: Western Analyses: Western analyses were conducted as described (Standaert et al., J. Biol. Chem. 279:24929-24934, 2004; Sajan et al., J. Lipid Res. 50:1133-1145, 2009; Sajan et al., Diabetologia 52:1197-1207, 2009; Farese et al., J. Clin. Invest. 117:2289-2301, 2007), using the following antibodies/antisera for immunodetection after resolution of lysate proteins by SDS-PAGE: rabbit polyclonal anti-IRS-1 antiserum (Upstate Cell Signaling); rabbit polyclonal anti-IRS-2 antiserum (Santa Cruz Technologies); rabbit polyclonal anti-PKC-ζ/λ antiserum (Santa Cruz Biotechnologies); rabbit polyclonal anti-PKC-ζ antiserum (gift of Dr. Todd Sacktor); mouse monoclonal anti-PKC-ι/ζ antibodies (Transduction Laboratories/BD, East Rutherford, N.J.); rabbit polyclonal anti-Akt1/2 antiserum (Upstate Cell Signaling); rabbit polyclonal anti-phospho-serine -473-Akt1/2 antiserum (New England BioLabs, Beverly, Mass.): rabbit polyclonal anti-phospho-threonine-410-[…]/-403-PKC-ι/λ antiserum (Upstate Cell Signaling); rabbit polyclonal anti-phospho-threonine-560-PKC-ζ/-555-PKC-ι/λ antiserum (Invitrogen); and anti-p65/RelA subunit of NFκB (Santa Cruz Biotechnologies). […]
Wild type mice were treated with 1.5 mg/kg ICAPP subcutaneously and after 2-30 hours, the mice were treated with 1 U/kg insulin 15 minutes before euthanasia. aPKC activity was determined as described in Example 1.

[1] = tested on: aPKC immunoprecipitated from tissues previously stimulated by insulin; assay: fully-activated aPKC immunoprecipitated from insulin-stimulated tissues; type: biochemical
Experimental: aPKCι Assays: aPKC enzyme activity was measured as previously described (Standaert et al., J. Biol. Chem. 279:24929-24934, 2004; Sajan et al., J. Lipid Res. 50:1133-1145, 2009; Sajan et al., Diabetologia 52:1197-1207, 2009; Farese et al., J. Clin. Invest. 117:2289-2301, 2007). […] After incubation, ^32P-labeled substrate was trapped on P-81 filter paper and counted. […]

| SMILES | inhibition of PKC-ζ (PKC-ζ) | ser-256 phosphorylation of hepatic FoxO1 (FoxO1) | inhibition of fully-activated aPKC immunoprecipitated from tissues previously stimulated by insulin [1] |
| --- | --- | --- | --- |
| NC(=O)c1ncn([C@@H]2C[C@H](COP(=O)(O)O)[C@@H](O)[C@H]2O)c1N [ICAPP, 1H-imidazole-4-carboxamide, 5-amino-1-[2,3-dihydroxy-4-[(phosphonooxy)methyl]cyclopentyl]-[1R-(1α,2β,3β,4α)]] | not inhibited | increased | – |
| O=C([O-])CC([S][Au])C(=O)[O-] (stereo not drawn) [ATM, aurothiomalate, reference compound] | – | – | did not inhibit |
